Laboratory results published in patent US20230218675A1, “EXOSOMES ISOLATED FROM DERMAL PAPILLA PROGENITOR CELLS, AND USE THEREOF” (CELLPARK GLOBAL, priority 2020, published 2023).

Tested on: human hair follicles
Test: Human hair follicle organ culture, hair follicle length growth evaluation 1
Format: cell-based
Conditions: for 6 days; exosomes 1.0×10^9 particles, minoxidil 1 μM
Procedure: In order to evaluate effects of the exosomes of the present invention on human hair follicle growth, a human hair follicle organ culture test (ex vivo hair follicle organ culture) was conducted. More specifically, scalp tissues were isolated into the unit of hair follicles, and the remaining hair follicles were used after cutting the part below the sebaceous gland of the isolated hair follicles. The prepared hair follicles were treated with Examples 1 and 2, and minoxidil as a positive control, respectively, and lengths of the hair growing on the 3rd and 6th days were measured, followed by comparing the measured results to the negative control in order to evaluate a length growth and a growth cycle of human hair follicles. […] The lengths of the hair follicles grown on the 3rd and 6th days of the culture, respectively, were measured using a microscope ruler.

Nc1cc(N2CCCCC2)nc(N)[n+]1[O-] [minoxidil]
growth of hair (hair follicle length): about 1.5 mm
